Test results: article PMC4612780, “Divergent Inhibitor Susceptibility among Airway Lumen-Accessible Tryptic Proteases” (PLoS ONE, 2015)

Assays:
Test in all cases: chromogenic hydrolysis of QAR, […] nm, initial rates
Assay type in all cases: biochemical
prostasin = target: T1, prostasin (Homo sapiens, UniProt Q16651); conditions: 1 mM QAR, pH 7.6, 120 mM NaCl, 0.05% Tween 20, 100 ug/ml heparin, 37 C, prostasin 80 nM
T1 construct: gene PRSS8; recombinant soluble catalytic domain (R&D Systems)

[1] = target: T2, β-tryptase; human lung (β) tryptase; conditions: 1 mM QAR, pH 7.6, 120 mM NaCl, 0.05% Tween 20, 100 ug/ml heparin, 37 C, tryptase 0.70 nM
T2 construct: gene TPSAB1; native soluble tetramer from human lung (EMD-Millipore)

[2] = target: T3, HAT; airway trypsin-like protease (Homo sapiens, UniProt O60235); conditions: 1 mM QAR, pH 7.6, 120 mM NaCl, 0.05% Tween 20, 100 ug/ml heparin, 37 C, HAT 0.72 nM
T3 construct: gene TMPRSS11D; recombinant soluble catalytic domain (R&D Systems)

matriptase [3] = target: T4, matriptase (Homo sapiens, UniProt Q9Y5Y6); conditions: 1 mM QAR, pH 7.6, 120 mM NaCl, 0.05% Tween 20, 100 ug/ml heparin, 37 C, matriptase 2.4 nM
T4 construct: gene ST14
T4 sequence (Q9Y5Y6 615-855 limits assumed): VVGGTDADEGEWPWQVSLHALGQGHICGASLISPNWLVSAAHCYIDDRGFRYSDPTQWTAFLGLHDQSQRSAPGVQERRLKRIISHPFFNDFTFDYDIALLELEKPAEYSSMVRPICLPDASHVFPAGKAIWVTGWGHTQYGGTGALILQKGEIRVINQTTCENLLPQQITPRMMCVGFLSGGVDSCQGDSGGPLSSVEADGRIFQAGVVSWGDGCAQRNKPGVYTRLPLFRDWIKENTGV

[4] = target: T3, HAT; airway trypsin-like protease; conditions: 1 mM QAR, pH 7.6, 120 mM NaCl, 0.05% Tween 20, 100 ug/ml heparin, 37 C; HAT 0.72 nM; unreliable (beyond tested range 1.6-20 uM)
matriptase [5] = target: T4, matriptase; conditions: 1 mM QAR, pH 7.6, 120 mM NaCl, 0.05% Tween 20, 100 ug/ml heparin, 37 C; matriptase 2.4 nM; unreliable (beyond tested range 0.24-1200 uM)

T3 sequence (O60235 187-418 limits assumed): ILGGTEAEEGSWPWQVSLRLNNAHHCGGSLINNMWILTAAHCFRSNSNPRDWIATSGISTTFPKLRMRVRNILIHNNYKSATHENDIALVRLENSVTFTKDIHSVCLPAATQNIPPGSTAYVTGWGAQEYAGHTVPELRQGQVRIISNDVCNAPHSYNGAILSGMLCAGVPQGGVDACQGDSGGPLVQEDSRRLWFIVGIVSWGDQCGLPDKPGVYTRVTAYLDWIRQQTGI
T1 sequence (Q16651 33-322 limits assumed): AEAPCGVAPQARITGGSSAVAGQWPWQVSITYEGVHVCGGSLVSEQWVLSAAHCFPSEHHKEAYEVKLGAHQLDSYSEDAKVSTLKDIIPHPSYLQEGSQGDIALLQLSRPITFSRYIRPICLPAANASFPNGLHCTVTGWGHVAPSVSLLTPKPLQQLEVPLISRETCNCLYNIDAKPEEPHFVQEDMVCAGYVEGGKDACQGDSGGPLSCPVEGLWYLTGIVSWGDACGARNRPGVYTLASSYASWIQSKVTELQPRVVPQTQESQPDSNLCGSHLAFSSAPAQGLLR

In the case of `N=C(N)Nc1ccc(C(=O)Oc2ccc3cc(C(=N)N)ccc3c2)cc1` [nafamostat], the Prostasin (prostasin) is reported as 11 [5.6, 20] [inhibitor]/[enzyme] ratio (dimensionless), the Tryptase ([1]; covalent, suicide substrate, near-stoichiometric) is reported as 0.44 [0.29, 0.67] [inhibitor]/[enzyme] ratio (dimensionless) and the HAT [2] is reported as 191 [154, 239] [inhibitor]/[enzyme] ratio (dimensionless).
`CN(C)C(=O)COC(=O)Cc1ccc(OC(=O)c2ccc(NC(=N)N)cc2)cc1` [camostat] was tested, and the Matriptase (matriptase [3]; covalent (acyl intermediate)) was 96 [80, 115] [inhibitor]/[enzyme] ratio (dimensionless), the Prostasin (prostasin; covalent (acyl intermediate)) was 14 [7.7, 25] [inhibitor]/[enzyme] ratio (dimensionless) and the Tryptase ([1]; covalent (acyl intermediate)) was 5.2 [3.7, 7.2] [inhibitor]/[enzyme] ratio (dimensionless). The HAT ([2]; covalent (acyl intermediate)) was 20 [16, 24] [inhibitor]/[enzyme] ratio (dimensionless).
With `N=C(N)c1ccc2[nH]c(Cc3nc4ccc(C(=N)N)cc4[nH]3)nc2c1` [BABIM, bis(5-amidino-2-benzimidazolyl)methane] the Matriptase (matriptase [3]) was 0.98 [0.87, 1.11] [inhibitor]/[enzyme] ratio (dimensionless), the Tryptase [1] was 108 [78, 149] [inhibitor]/[enzyme] ratio (dimensionless) and the HAT ([2]; brackets 95% CI) was 71 [48, 105] [inhibitor]/[enzyme] ratio (dimensionless).
With `N=C(N)c1ccccc1` [benzamidine] the HAT [4] was 1.4e6 [2.0e5, 9.6e6] [inhibitor]/[enzyme] ratio (dimensionless), the Matriptase (matriptase [5]) was 1.1e6 [9.4e5, 1.2e6] [inhibitor]/[enzyme] ratio (dimensionless) and the Tryptase [1] was 4.7e4 [3.4e4, 6.5e4] [inhibitor]/[enzyme] ratio (dimensionless).
